According to patent US10457709B2, “Antimicrobial peptides, their variants and uses” (priority 2015, dated 2019):
≈ marks a conversion by molar mass, not a printed value. Read-outs that look alike come from different tables or passages of the source. Square brackets hold non-standard residues; d marks the D form. Peptide text beside a SMILES is read from it.

Key:
[1] = test system: C. glabrata clinical strains; assay: MIC, clinical yeast strains; format: cell-based, Candida glabrata; design: unit: µg/ml
Summary of the method: (§1)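 Broth microdilution in Mueller Hinton broth, inoculum adjusted to 5.0×10^5 cfu/ml, peptides tested at 0.125 to 128 μg/ml, 37° C for 20 to 24 hours. Yeast assays were run in potato dextrose broth. MIC was taken as the lowest concentration with no visible growth.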

[2] = test system: Klebsiella pneumoniae clinical strains; format: cell-based; conditions: microdilution, Muller Hinton broth-cation adjusted, 0.02% BSA, 0.2% acetic acid
Summary of the method: as §1

[3] = test system: Escherichia coli clinical strains; format: cell-based; conditions: for Minimum inhibitory concentration: microdilution, Muller Hinton broth-cation adjusted, 0.02% BSA, 0.2% acetic acid
Summary of the method: as §1

[4] = test system: all the bacteria and yeasts tested; format: cell-based
Summary of the method: as §1

[5] = test system: Acinetobacter johnsonii clinical strains; format: cell-based; conditions: Acinetobacter johnsonii clinical strain 1; microdilution, Muller Hinton broth-cation adjusted, 0.02% BSA, 0.2% acetic acid
Summary of the method: as §1

[6] = test system: Pseudomonas aeruginosa clinical strains; format: cell-based; conditions: microdilution, Muller Hinton broth-cation adjusted, 0.02% BSA, 0.2% acetic acid
Summary of the method: as §1

[7] = test system: C. quillermondiae clinical strains; assay: MIC, clinical yeast strains; format: cell-based, Candida quillermondiae; design: unit: μg/ml; conditions: C. quillermondiae clinical yeast strain 1
Summary of the method: as §1

[8] = test system: Candida albicans clinical strains; assay: MIC, clinical yeast strains; format: cell-based; design: unit: μg/ml
Summary of the method: as §1

[9] = test system: Serratia marcescens clinical strains; format: cell-based; design: Minimum inhibitory concentration: unit: μg/ml; conditions: microdilution, Muller Hinton broth-cation adjusted, 0.02% BSA, 0.2% acetic acid
Summary of the method: as §1

[10] = test system: Staphylococcus aureus clinical strains; format: cell-based; design: Minimum inhibitory concentration: unit: μg/ml; conditions: microdilution, Muller Hinton broth-cation adjusted, 0.02% BSA, 0.2% acetic acid
Summary of the method: as §1

[11] = test system: Proteus mirabilis clinical strains; format: cell-based; design: Minimum inhibitory concentration: unit: μg/ml; conditions: microdilution, Muller Hinton broth-cation adjusted, 0.02% BSA, 0.2% acetic acid
Summary of the method: as §1

[12] = test system: Enterobacter cloacae clinical strains; format: cell-based; design: Minimum inhibitory concentration: unit: μg/ml; conditions: microdilution, Muller Hinton broth-cation adjusted, 0.02% BSA, 0.2% acetic acid
Summary of the method: as §1

[13] = test system: Acinetobacter baumannii clinical strains; format: cell-based; design: Minimum inhibitory concentration: unit: μg/ml; conditions: microdilution, Muller Hinton broth-cation adjusted, 0.02% BSA, 0.2% acetic acid
Summary of the method: as §1

[14] = test system: Streptococcus pneumoniae clinical strains; format: cell-based; design: Minimum inhibitory concentration: unit: μg/ml; conditions: microdilution, Muller Hinton broth-cation adjusted, 0.02% BSA, 0.2% acetic acid
Summary of the method: as §1

[15] = test system: C. parapsilosis clinical strains; assay: MIC, clinical yeast strains; format: cell-based, Candida parapsilosis; design: unit: µg/ml
Summary of the method: as §1

MIC against E. coli ([3]; clinical strains): 1 µg/mL (≈ 0.619 µM)
MIC against the rest of the bacterial strains [4]: > 32 µg/mL
SMILES: CC(C)C[C@@H](NC(=O)[C@H](N)CCCNC(=N)N)C(=O)N[C@H](CCCCN)C(=O)N[C@H](CCCNC(=N)N)C(=O)N[C@H](Cc1c[nH]c2ccccc12)C(=O)N[C@H](CCCNC(=N)N)C(=O)N[C@H](CC(C)C)C(=O)N[C@H](Cc1ccccc1)C(=O)N[C@H](CCCNC(=N)N)C(=O)N[C@H](CCCCN)C(=O)N[C@H](CCCNC(=N)N)C(=O)O [Chain306D] (H-[dR][dL][dK][dR][dW][dR][dL][dF][dR][dK][dR]-OH)
Minimum inhibitory concentration ([1]; C. glabrata clinical yeast strain 1): 8
Minimum inhibitory concentration ([1]; C. glabrata clinical yeast strain 2): 8
Minimum inhibitory concentration ([1]; C. glabrata clinical yeast strain 3): 16
Minimum inhibitory concentration ([1]; C. glabrata clinical yeast strain 4): 32
Minimum inhibitory concentration ([2]; Klebsiella pneumoniae clinical strain 1): 128
Minimum inhibitory concentration ([2]; Klebsiella pneumoniae clinical strain 2): >128
Minimum inhibitory concentration ([2]; Klebsiella pneumoniae clinical strain 3): >128
Minimum inhibitory concentration ([2]; Klebsiella pneumoniae clinical strain 4): 64
Minimum inhibitory concentration ([2]; Klebsiella pneumoniae clinical strain 5): 64
Minimum inhibitory concentration ([3]; Escherichia coli clinical strain 1): 1
Minimum inhibitory concentration ([3]; Escherichia coli clinical strain 2): 2
Minimum inhibitory concentration ([3]; Escherichia coli clinical strain 3): 2
Minimum inhibitory concentration ([3]; Escherichia coli clinical strain 4): 2
Minimum inhibitory concentration ([3]; Escherichia coli clinical strain 5): 2
Minimum inhibitory concentration [5]: 16
Minimum inhibitory concentration ([6]; Pseudomonas aeruginosa clinical strain 1): 128
Minimum inhibitory concentration ([6]; Pseudomonas aeruginosa clinical strain 2): >128
Minimum inhibitory concentration ([6]; Pseudomonas aeruginosa clinical strain 3): 128
Minimum inhibitory concentration ([6]; Pseudomonas aeruginosa clinical strain 4): >128
Minimum inhibitory concentration ([6]; Pseudomonas aeruginosa clinical strain 5): 128
Minimum inhibitory concentration [7]: 4
Minimum inhibitory concentration ([8]; Candida albicans clinical yeast strain 1): 16
Minimum inhibitory concentration ([8]; Candida albicans clinical yeast strain 2): 8
Minimum inhibitory concentration ([8]; Candida albicans clinical yeast strain 3): 8
Minimum inhibitory concentration ([8]; Candida albicans clinical yeast strain 4): 16
Minimum inhibitory concentration ([8]; Candida albicans clinical yeast strain 5): 16
Minimum inhibitory concentration ([9]; Serratia marcescens clinical strain 1): >128
Minimum inhibitory concentration ([9]; Serratia marcescens clinical strain 2): >128
Minimum inhibitory concentration ([9]; Serratia marcescens clinical strain 3): >128
Minimum inhibitory concentration ([9]; Serratia marcescens clinical strain 4): >128
Minimum inhibitory concentration ([9]; Serratia marcescens clinical strain 5): >128
Minimum inhibitory concentration ([10]; Staphylococcus aureus clinical strain 1): 16
Minimum inhibitory concentration ([10]; Staphylococcus aureus clinical strain 2): 32
Minimum inhibitory concentration ([10]; Staphylococcus aureus clinical strain 3): 32
Minimum inhibitory concentration ([10]; Staphylococcus aureus clinical strain 4): 16
Minimum inhibitory concentration ([10]; Staphylococcus aureus clinical strain 5): 8
Minimum inhibitory concentration ([11]; Proteus mirabilis clinical strain 1): >128
Minimum inhibitory concentration ([11]; Proteus mirabilis clinical strain 2): >128
Minimum inhibitory concentration ([11]; Proteus mirabilis clinical strain 3): >128
Minimum inhibitory concentration ([11]; Proteus mirabilis clinical strain 4): >128
Minimum inhibitory concentration ([11]; Proteus mirabilis clinical strain 5): >128
Minimum inhibitory concentration ([12]; Enterobacter cloacae clinical strain 1): 64
Minimum inhibitory concentration ([12]; Enterobacter cloacae clinical strain 2): 64
Minimum inhibitory concentration ([12]; Enterobacter cloacae clinical strain 3): 32
Minimum inhibitory concentration ([12]; Enterobacter cloacae clinical strain 4): 16
Minimum inhibitory concentration ([12]; Enterobacter cloacae clinical strain 5): 16
Minimum inhibitory concentration ([13]; Acinetobacter baumannii clinical strain 1): 16
Minimum inhibitory concentration ([13]; Acinetobacter baumannii clinical strain 2): 32
Minimum inhibitory concentration ([13]; Acinetobacter baumannii clinical strain 3): 16
Minimum inhibitory concentration ([13]; Acinetobacter baumannii clinical strain 4): 16
Minimum inhibitory concentration ([13]; Acinetobacter baumannii clinical strain 5): 8
Minimum inhibitory concentration ([14]; Streptococcus pneumoniae clinical strain 1): 64
Minimum inhibitory concentration ([14]; Streptococcus pneumoniae clinical strain 2): 64
Minimum inhibitory concentration ([14]; Streptococcus pneumoniae clinical strain 3): 64
Minimum inhibitory concentration ([14]; Streptococcus pneumoniae clinical strain 4): 128
Minimum inhibitory concentration ([14]; Streptococcus pneumoniae clinical strain 5): 64
Minimum inhibitory concentration ([15]; C. parapsilosis clinical yeast strain 1): 8
Minimum inhibitory concentration ([15]; C. parapsilosis clinical yeast strain 2): 16
Minimum inhibitory concentration ([15]; C. parapsilosis clinical yeast strain 3): 16
Minimum inhibitory concentration ([15]; C. parapsilosis clinical yeast strain 4): 4
